Results as given in ChEMBL document CHEMBL1201862, “PubChem BioAssay data set” (2004).
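Method: 48-hour compound exposure of cells in 96-well plates, five concentrations, linear interpolation of endpoints. The concentration for 50% growth inhibition is given as GI50.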 Activity calls are given as the source filed them. Cut-off read from the data, not from the text of the source: active = GI50 up to about 1.1 µM and inactive = higher.

How the values were obtained:
Assay in all cases: inhibition of tumour cell growth, NCI panel, 48 h
MCF7 = system: MCF7
HT-29 = system: HT-29
A549 = system: A549
SN12C = system: SN12C
MDA-N = system: MDA-N
Malme-3M = system: Malme-3M
OVCAR-4 = system: OVCAR-4
PC-3 = system: PC-3
T47D = system: T47D
CCRF-CEM = system: CCRF-CEM
HOP-92 = system: HOP-92
HCT-116 = system: HCT-116
SNB-19 = system: SNB-19
SK-MEL-2 = system: SK-MEL-2
KM12 = system: KM12
SF-295 = system: SF-295
LOX IMVI = system: LOX IMVI
U-251 = system: U-251
UACC-257 = system: UACC-257
MDA-MB-435 = system: MDA-MB-435

Structure (SMILES)	GI50 (MCF7)	GI50 (HT-29)	GI50 (A549)	GI50 (SN12C)	GI50 (MDA-N)	GI50 (Malme-3M)	GI50 (OVCAR-4)	GI50 (PC-3)	GI50 (T47D)	GI50 (CCRF-CEM)	GI50 (HOP-92)	GI50 (HCT-116)	GI50 (SNB-19)	GI50 (SK-MEL-2)	GI50 (KM12)	GI50 (SF-295)	GI50 (LOX IMVI)	GI50 (U-251)	GI50 (UACC-257)	GI50 (MDA-MB-435)
Nc1nc(O)c2[nH]cnc2[n+]1[O-]	37.1 µM (inactive)	> 100 µM (inactive)	> 100 µM (inactive)	40.5 µM (inactive)	> 100 µM (inactive)	> 100 µM (inactive)	> 100 µM (inactive)	> 100 µM (inactive)	> 100 µM (inactive)	> 100 µM (inactive)	> 100 µM (inactive)	> 100 µM (inactive)	> 100 µM (inactive)	> 100 µM (inactive)	> 100 µM (inactive)	> 100 µM (inactive)	> 100 µM (inactive)	> 100 µM (inactive)	> 100 µM (inactive)	
CC[C@H]1OC([C@H](O)C/C=C\C#C[Si](C)(C)C)C/C=C\C[C@H]1O[Si](C)(C)C(C)(C)C (stereo partly drawn)	51.4 µM (inactive)	> 100 µM (inactive)	> 100 µM (inactive)	> 100 µM (inactive)	> 100 µM (inactive)	> 100 µM (inactive)	> 100 µM (inactive)	> 100 µM (inactive)	> 100 µM (inactive)	43.3 µM (inactive)		> 100 µM (inactive)	> 100 µM (inactive)	> 100 µM (inactive)	> 100 µM (inactive)	> 100 µM (inactive)	19.4 µM (inactive)	> 100 µM (inactive)		> 100 µM (inactive)
CCN1C(=O)C(C)S/C1=N\NC(=O)CSc1nc2ccccc2c(=O)n1CC (stereo not drawn)	> 100 µM (inactive)		> 100 µM (inactive)	> 100 µM (inactive)	> 100 µM (inactive)	> 100 µM (inactive)	92 µM (inactive)	> 100 µM (inactive)	> 100 µM (inactive)	> 100 µM (inactive)		> 100 µM (inactive)	> 100 µM (inactive)	> 100 µM (inactive)	> 100 µM (inactive)	> 100 µM (inactive)	> 100 µM (inactive)	> 100 µM (inactive)	> 100 µM (inactive)	> 100 µM (inactive)
O=C1/C(=C/c2ccccc2[N+](=O)[O-])N=C(c2ccccc2)N1C1Nc2cc3c(cc2S1)NC(N1C(=O)/C(=C/c2ccccc2[N+](=O)[O-])N=C1c1ccccc1)S3 (stereo not drawn)	18.7 µM (inactive)	36.2 µM (inactive)	12.6 µM (inactive)		36.8 µM (inactive)		53.5 µM (inactive)	32.9 µM (inactive)	25.1 µM (inactive)		> 100 µM (inactive)	16 µM (inactive)		36.8 µM (inactive)	52.4 µM (inactive)	63.8 µM (inactive)	35 µM (inactive)	31 µM (inactive)	91 µM (inactive)	51.6 µM (inactive)
N#C[C@@H](c1ccccn1)c1ncccc1[N+](=O)[O-]	74 µM (inactive)	> 100 µM (inactive)	> 100 µM (inactive)	> 100 µM (inactive)	> 100 µM (inactive)	> 100 µM (inactive)	> 100 µM (inactive)	> 100 µM (inactive)	> 100 µM (inactive)	> 100 µM (inactive)		> 100 µM (inactive)	> 100 µM (inactive)	> 100 µM (inactive)		> 100 µM (inactive)	> 100 µM (inactive)	> 100 µM (inactive)		> 100 µM (inactive)
CNC(Cc1ccccc1)c1cccc(OC)c1O (stereo not drawn)		91.6 µM (inactive)	> 100 µM (inactive)	> 100 µM (inactive)	99.3 µM (inactive)	> 100 µM (inactive)	> 100 µM (inactive)	60.7 µM (inactive)	5 µM (inactive)		> 100 µM (inactive)	> 100 µM (inactive)	> 100 µM (inactive)	> 100 µM (inactive)	> 100 µM (inactive)	> 100 µM (inactive)	> 100 µM (inactive)	> 100 µM (inactive)	18.6 µM (inactive)	> 100 µM (inactive)
CSc1cc(Cl)c(C)cc1S(=O)(=O)NC(=O)NNc1ccccn1	> 100 µM (inactive)	> 100 µM (inactive)	> 100 µM (inactive)	> 100 µM (inactive)	> 100 µM (inactive)	> 100 µM (inactive)	> 100 µM (inactive)	> 100 µM (inactive)	> 100 µM (inactive)	> 100 µM (inactive)		> 100 µM (inactive)	> 100 µM (inactive)	> 100 µM (inactive)	> 100 µM (inactive)	> 100 µM (inactive)	> 100 µM (inactive)	> 100 µM (inactive)		> 100 µM (inactive)
COc1cc2c(cc1OC)C1(COc3cc(O)c(O)c(O)c3C1=O)C2 (stereo not drawn)	0.005 µM (active)	> 50 µM (inactive)	> 50 µM (inactive)	> 50 µM (inactive)	> 50 µM (inactive)	> 50 µM (inactive)	> 50 µM (inactive)	> 50 µM (inactive)	5.11 µM (inactive)	> 50 µM (inactive)		> 50 µM (inactive)	> 50 µM (inactive)	> 50 µM (inactive)	> 50 µM (inactive)	25.9 µM (inactive)	> 50 µM (inactive)	> 50 µM (inactive)	> 50 µM (inactive)	> 50 µM (inactive)
